Assay results as given in patent publication US20110319411A1, “ISOINDOLINONE AND RELATED ANALOGS AS SIRTUIN MODULATORS” (Sirtis Pharmaceuticals, Inc., priority 2008, published 2011).

Biological target: T1, SIRT1 (Homo sapiens, UniProt Q96EB6)
T1 construct: made in house; host or cells: E. coli BL21(DE3)
T1 sequence (Q96EB6 1-747): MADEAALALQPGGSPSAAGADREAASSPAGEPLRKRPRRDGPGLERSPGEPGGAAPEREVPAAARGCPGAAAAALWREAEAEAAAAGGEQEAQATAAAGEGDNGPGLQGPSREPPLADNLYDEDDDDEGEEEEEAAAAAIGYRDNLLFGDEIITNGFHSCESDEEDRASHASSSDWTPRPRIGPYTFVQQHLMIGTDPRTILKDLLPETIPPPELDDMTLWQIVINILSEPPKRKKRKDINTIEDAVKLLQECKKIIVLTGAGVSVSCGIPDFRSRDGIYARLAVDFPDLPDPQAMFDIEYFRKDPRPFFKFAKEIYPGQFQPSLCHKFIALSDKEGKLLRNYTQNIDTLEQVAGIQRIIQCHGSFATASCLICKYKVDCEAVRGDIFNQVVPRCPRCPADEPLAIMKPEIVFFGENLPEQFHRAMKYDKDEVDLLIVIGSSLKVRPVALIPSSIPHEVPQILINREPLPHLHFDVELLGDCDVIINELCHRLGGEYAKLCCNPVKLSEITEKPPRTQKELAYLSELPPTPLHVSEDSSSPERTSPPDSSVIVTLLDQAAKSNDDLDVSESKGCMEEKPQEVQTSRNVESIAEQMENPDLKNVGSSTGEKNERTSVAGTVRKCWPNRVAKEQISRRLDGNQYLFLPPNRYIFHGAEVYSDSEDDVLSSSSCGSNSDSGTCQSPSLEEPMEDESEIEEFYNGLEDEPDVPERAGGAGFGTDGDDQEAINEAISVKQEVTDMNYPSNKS
Assay: mass spectrometry based assay to identify modulators of SIRT1 activity
Type: biochemical
Settings: 10 nM SIRT1, 0.5 μM peptide substrate, 120 μM βNAD+, 25 minutes at 25° C.; for Emax: 25 min, read-out: % FOLD ACT. (percent maximum fold activation)
Excerpt: A mass spectrometry based assay was used to identify modulators of SIRT1 activity. The mass spectrometry based assay utilizes a peptide having 20 amino acid residues as follows: Ac-EE-K(biotin)-GQSTSSHSK(Ac)NleSTEG-K(5TMR)-EE-NH2 (SEQ ID NO: 1) wherein K(Ac) is an acetylated lysine residue and Nle is a norleucine. The peptide is labeled with the fluorophore 5TMR (excitation 540 nm/emission 580 nm) at the C-terminus. The sequence of the peptide substrate is based on p53 with several modifications. In addition, the methionine residue naturally present in the sequence was replaced with the norleucine because the methionine may be susceptible to oxidation during synthesis and purification.
The mass spectrometry assay is conducted as follows: 0.5 μM peptide substrate and 120 μM βNAD^+ is incubated with 10 nM SIRT1 for 25 minutes at 25° C. in a reaction buffer (50 mM Tris-acetate pH 8, 137 mM NaCl, 2.7 mM KCl, 1 mM MgCl2, 5 mM DTT, 0.05% BSA). Test compounds may be added to the reaction as described above. The SirT1 gene is cloned into a T7-promoter containing vector and transformed into BL21(DE3). After the 25 minute incubation with SIRT1, 10 μL of 10% formic acid is added to stop the reaction. Reactions are sealed and frozen for later mass spec analysis. Determination of the mass of the substrate peptide allows for precise determination of the degree of acetylation (i.e. starting material) as compared to deacetylated peptide (product).
A control for inhibition of sirtuin activity is conducted by adding 1 μL of 500 mM nicotinamide as a negative control at the start of the reaction (e.g., permits determination of maximum sirtuin inhibition). A control for activation of sirtuin activity is conducted using 10 nM of sirtuin protein, with 1 μL of DMSO in place of compound, to determine the amount of deacetylation of the substrate at a given timepoint within the linear range of the assay. This timepoint is the same as that used for test compounds and, within the linear range, the endpoint represents a change in velocity.
For the above assay, SIRT1 protein was expressed and purified as follows. The SirT1 gene was cloned into a T7-promoter containing vector and transformed into BL21(DE3). The protein was expressed by induction with 1 mM IPTG as an N-terminal His-tag fusion protein at 18° C. overnight and harvested at 30,000×g. Cells were lysed with lysozyme in lysis buffer (50 mM Tris-HCl, 2 mM Tris[2-carboxyethyl]phosphine (TCEP), 10 μM ZnCl2, 200 mM NaCl) and further treated with sonication for 10 min for complete lysis. The protein was purified over a Ni-NTA column (Amersham) and fractions containing pure protein were pooled, concentrated and run over a sizing column (Sephadex S200 26/60 global). The peak containing soluble protein was collected and run on an Ion-exchange column (MonoQ). Gradient elution (200 mM-500 mM NaCl) yielded pure protein. This protein was concentrated and dialyzed against dialysis buffer (20 mM Tris-HCl, 2 mM TCEP) overnight. The protein was aliquoted and frozen at −80° C. until further use.
Sirtuin modulating compounds that activated SIRT1 were identified using the assay described above and are shown below in Table 1. The EC1.5 values represent the concentration of test compounds that result in 150% activation of SIRT1. The EC1.5 values for the activating compounds are represented by A (EC1.5<10 μM), B (EC1-5 10-25 μM), C (EC1.5>25 μM). The percent maximum fold activation is represented by A (Fold activation >200%) or B (Fold Activation <200%).

Structure (SMILES) | EC1.5 (concentration of test compound that results in 150% activation of SIRT1) | Emax
O=C(Nc1cccc2c1C(=O)N(c1cccc(C(F)(F)F)c1)C2)c1cnccn1 [Compound 100, N-(3-oxo-2-(3-(trifluoromethyl)phenyl)isoindolin-4-yl)pyrazine-2-carboxamide] | A (EC1.5<10 μM) | < 200%
O=C(Cc1cccnc1)Nc1cccc2c1C(=O)N(c1cccc(C(F)(F)F)c1)C2 [Compound 101] | C (EC1.5>25 μM) | < 200%
O=C(Cc1cccnc1)Nc1cccc2c1C(=O)N(c1cccc(OC3CCNCC3)c1)C2 [Compound 102, N-(3-oxo-2-(3-(piperidin-4-yloxy)phenyl)isoindolin-4-yl)-2-(pyridin-3-yl)acetamide] | C (EC1.5>25 μM) | < 200%
O=C(Cc1cccnc1)Nc1cccc2c1C(=O)N(c1cccc(O[C@@H]3CCNC3)c1)C2 [Compound 103] | B (EC1-5 10-25 μM) | < 200%
O=C(Cc1cccnc1)Nc1cccc2c1C(=O)N(c1cccc(-c3ccncc3)c1)C2 [Compound 104] | C (EC1.5>25 μM) | < 200%
CC1(C(=O)Nc2cccc3c2C(=O)N(c2cccc(C(F)(F)F)c2)C3)CCCCC1 [Compound 105] | C (EC1.5>25 μM) | < 200%
CC(C)(C(=O)Nc1cccc2c1C(=O)N(c1cccc(C(F)(F)F)c1)C2)c1ccccc1 [Compound 106] | C (EC1.5>25 μM) | < 200%
O=C(Cc1cccnc1)Nc1cccc2c1C(=O)N(c1cccc(OC(F)(F)F)c1)C2 [Compound 107] | C (EC1.5>25 μM) | < 200%
O=C(Nc1cccc2c1C(=O)N(c1cccc(OC(F)(F)F)c1)C2)C1CCCC1 [Compound 108] | C (EC1.5>25 μM) | < 200%
O=C(Cc1ccccc1F)Nc1cccc2c1C(=O)N(c1cccc(C(F)(F)F)c1)C2 [Compound 109] | C (EC1.5>25 μM) | < 200%
O=C(Cc1cccc(F)c1)Nc1cccc2c1C(=O)N(c1cccc(C(F)(F)F)c1)C2 [Compound 110] | C (EC1.5>25 μM) | < 200%
O=C(Nc1cccc2c1C(=O)N(c1cccc(C(F)(F)F)c1)C2)C1CCOCC1 [Compound 111] | A (EC1.5<10 μM) | < 200%
O=C(CC1CCCC1)Nc1cccc2c1C(=O)N(c1cccc(C(F)(F)F)c1)C2 [Compound 112] | C (EC1.5>25 μM) | < 200%
O=C(Cc1ccc(F)cc1)Nc1cccc2c1C(=O)N(c1cccc(C(F)(F)F)c1)C2 [Compound 113] | C (EC1.5>25 μM) | < 200%
Cc1ccccc1N1Cc2cccc(NC(=O)Cc3cccnc3)c2C1=O [Compound 114] | C (EC1.5>25 μM) | < 200%
Cc1cccc(N2Cc3cccc(NC(=O)Cc4cccnc4)c3C2=O)c1 [Compound 115] | C (EC1.5>25 μM) | < 200%

Structure (SMILES) | EC1.5 (concentration of test compound that results in 150% activation of SIRT1) | Emax
COc1cccc(N2Cc3cccc(NC(=O)Cc4cccnc4)c3C2=O)c1 [Compound 116] | C (EC1.5>25 μM) | < 200%
Cc1ccc(N2Cc3cccc(NC(=O)Cc4cccnc4)c3C2=O)cc1 [Compound 117] | C (EC1.5>25 μM) | < 200%
COc1ccc(N2Cc3cccc(NC(=O)Cc4cccnc4)c3C2=O)cc1 [Compound 118] | C (EC1.5>25 μM) | < 200%
COc1ccccc1N1Cc2cccc(NC(=O)Cc3cccnc3)c2C1=O [Compound 119] | C (EC1.5>25 μM) | < 200%
O=C(Nc1cccc2c1C(=O)N(c1cccc(C(F)(F)F)c1)C2)c1ccccn1 [Compound 120] | C (EC1.5>25 μM) | < 200%
O=C(Nc1cccc2c1C(=O)N(c1cccc(C(F)(F)F)c1)C2)c1cccnc1 [Compound 121] | C (EC1.5>25 μM) | < 200%
O=C(Nc1cccc2c1C(=O)N(c1cccc(C(F)(F)F)c1)C2)c1ncccn1 [Compound 122] | A (EC1.5<10 μM) | < 200%
O=C(Nc1cccc2c1C(=O)N(c1cccc(C(F)(F)F)c1)C2)c1ccncc1 [Compound 123] | B (EC1-5 10-25 μM) | < 200%
O=C(Nc1cccc2c1C(=O)N(c1cccc(C(F)(F)F)c1)C2)c1cscn1 [Compound 124] | C (EC1.5>25 μM) | < 200%
O=C(Nc1cccc2c1C(=O)N(c1cccc(C(F)(F)F)c1)C2)c1ccc(CN2CCCC2)cc1 [Compound 125] | A (EC1.5<10 μM) | < 200%
O=C(Nc1cccc2c1C(=O)N(c1cccc(C(F)(F)F)c1)C2)c1cncnc1 [Compound 126] | C (EC1.5>25 μM) | < 200%
O=C(Nc1cccc2c1C(=O)N(c1cccc(C(F)(F)F)c1)C2)c1ccncn1 [Compound 127] | C (EC1.5>25 μM) | < 200%
O=C(Nc1cccc2c1C(=O)N(c1cccc(C(F)(F)F)c1)C2)c1cncs1 [Compound 128] | C (EC1.5>25 μM) | < 200%
O=C(Nc1cccc2c1C(=O)N(c1cccc(C(F)(F)F)c1)C2)c1cccc(OCC(O)CO)n1 (centres unmarked) [Compound 129, 6-(2,3-dihydroxypropoxy)-N-(3-oxo-2-(3-(trifluoromethyl)phenyl)isoindolin-4-yl)picolinamide] | C (EC1.5>25 μM) | < 200%
O=C(Nc1cccc2c1C(=O)N(c1cccc(C(F)(F)F)c1)C2)c1cccc(CN2CCOCC2)n1 [Compound 130, 6-(morpholinomethyl)-N-(3-oxo-2-(3-(trifluoromethyl)phenyl)isoindolin-4-yl)picolinamide] | A (EC1.5<10 μM) | < 200%
